Assay results published in paper PMC6656724 (Communications Biology, 2019).
Where “and” joins values, the source holds several entries; their conditions need not be identical. Equal values may be shown once.

Assays:
[1] = molecular target: T1, PfKMO (Pseudomonas fluorescens, UniProt Q84HF5, C252S/C461S); assay: biochemical
T1 construct: made in house; host or cells: E. coli BL21 (DE3)
Procedure: saturating concentrations of the L-KYN and NADPH substrates. Data are plotted […]
consumption of NADPH at 340 nm upon addition of enzyme via a Cary 50 UV-Vis spectrophotometer (Agilent Technologies). Rates were determined from linear regression fits to the initial linear portion of the curves. All measurements were performed in triplicate. The IC50 values for inhibitors were obtained by plotting the percentage inhibition versus the inhibitor concentration and fitting to the Morrison equation16 (equation 1) using Origin 9.0 Software (OriginLab, Northampton, MA).
E + I + K!"" − E + I + K!"" ! − 4[E][I] where v0 is the enzyme activity without inhibitor, vi is the enzyme activity with ligand concentration [I], [E] is the enzyme concentration, [I] is the inhibitor concentration, K!"" is the apparent inhibition constant and IC = K!"" + [!] . If K!"" ≫ [!], IC ≈ […]
where Ki is the inhibition constant, [S] is the substrate concentration used in the assay and Km is the Michaelis-Menten constant17. […]
between Ki and Ki apparent values, as the conditions for measuring IC50 are different, Ki values can be used to compare with other reported KMO inhibitors.
Steady-state kinetic parameters for PfKMO were calculated by measuring initial rates […]
the observed rate of turnover (v) versus the varied substrate concentration were fitted to equation 2 using Origin 9.0 Software (OriginLab, Northampton, MA).
A B + K!! B + K!! A + K!!K!! where v is the initial rate of activity, Vmax is the maximum velocitie of the reaction, [A] and [B] are the substrate concentration, K!! and K!! are the Michaelis-Menten constant for different substrate and K!! is the inhibition (binding) constant of substrate A to the free enzyme while forming transitory complexes.18
Product inhibition studies were carried out by measuring reaction rates at varying […]
one substrate and varying concentrations of the other substrate. Inhibition studies with target compounds were carried out by measuring reaction rates at varying inhibitor concentrations at saturating concentrations of one substrate and varying concentrations of the other substrate. […]
were used to distinguish between different types of inhibition. The data were fitted to a straight line defined by the Lineweaver-Burke equation (equation 4), with the y intercept providing 1/Vmax and the x intercept giving -1/Km. […]

[2] = molecular target: T1, PfKMO; assay: Hydrogen peroxide production, o-dianisidine / horseradish peroxidase assay; assay type: biochemical; details: presence and absence of L-Kyn
Procedure: H2O2 production rates from PfKMO inhibitor complexes were performed using a horseradish peroxidase (HRP) assay. NADPH consumption rate was measured in the presence and absence of an excess of KMO inhibitors (400 μM). For determination of H2O2 production rates, PfKMO (0.1 μM) was incubated with 100 μM NADPH, 200 μM L-KYN, 400 μM o-dianisidine and ∼5 units HRP in the presence and absence of excess KMO inhibitors. The rate of oxidation of o-dianisidine by H2O2, catalysed by HRP, was monitored at 440 nm (Δε 440 nm = 11.3 mM^−1 cm^−1). To eliminate the L-Kyn competition binding effect, the H2O2 production rates of KMO inhibitors were also measured without L-Kyn with the same method.

[3] = Elimination in urine after intravenous administration; assay type: in vivo, female C57BL/6 mouse; details: mouse, 1 mg free base/kg i.v.
Procedure: Supplementary Table 8. Elimination of inhibitor 1 in urine following single
intravenous administration at 1 mg free base/kg to a female C57BL/6 mouse.
Time Absolute amount of drug Amount of drug in urine

[4] = tested on: KMO activity in the striatum; assay: De novo 3-HK synthesis after intrastriatal [5-3H]-kynurenine; assay type: in vivo, Sprague–Dawley rats
Procedure: The prodrug (5 mg/kg) was administered intravenously to rats, immediately followed by an intrastriatal infusion of [^3H]-KYN. Tritiated KP metabolites were analysed after 1 h. A significant ~70% reduction (P < 0.01) in [^3H]-3-HK was observed (Fig. 3f) in parallel with minor increases in [^3H]-QUIN and […] (data not shown)—mirroring the results using a focal intracerebral injection of a KMO inhibitor[17].
The radioactive tracer method previously described by Guidetti et al. (1995)[31] was used to study acute KP metabolism in the brain in vivo. To this end, adult male Sprague–Dawley rats (weighing 270–300 g) were anesthetized with isoflurane using a vaporiser (induction dose 5%, maintenance dose 2%, v/v, in 100% oxygen) and placed in a stereotaxic frame. […] After thawing, tritiated KP metabolites were detected and analysed as described previously. The production of newly formed [^3H]-KYNA, [^3H]-3-HK and [^3H]-QUIN was expressed as a percentage of the total radioactivity recovered per striatum. […] The mobile phase was flown at 1.2 ml/min (Waters 515 HPLC Pump) through YMC-Pack Pro C18 (250 × 4.6 mm) column and detected with UV (Applied Biosystems 785A Absorbance Detector) at 254 nm then mixed with LabLogic FlowLogic U scintillation fluid flowing at 2.7 mL/min and radiation was detected (Berthold Technologies FlowStar LB514).

T1 sequence (Q84HF5 whole entry C252S/C461S): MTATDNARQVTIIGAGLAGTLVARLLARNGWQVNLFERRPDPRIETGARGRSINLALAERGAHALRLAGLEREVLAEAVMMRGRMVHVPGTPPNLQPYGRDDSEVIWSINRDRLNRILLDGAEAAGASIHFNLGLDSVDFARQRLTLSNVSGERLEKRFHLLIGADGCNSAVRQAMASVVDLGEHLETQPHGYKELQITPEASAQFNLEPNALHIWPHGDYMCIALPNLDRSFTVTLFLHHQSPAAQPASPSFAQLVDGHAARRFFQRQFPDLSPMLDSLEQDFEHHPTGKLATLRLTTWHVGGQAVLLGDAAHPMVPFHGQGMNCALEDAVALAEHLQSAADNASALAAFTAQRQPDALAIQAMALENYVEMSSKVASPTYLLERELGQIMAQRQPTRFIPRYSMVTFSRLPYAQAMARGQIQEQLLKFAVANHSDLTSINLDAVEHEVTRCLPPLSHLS

Cc1cc2c(c(C)c1Cl)N(CC(=O)O)C(=O)CO2 [compound 1, (6-chloro-5,7-dimethyl-3-oxo-2,3-dihydro-4H-1,4-benzoxazin-4-yl) acetic acid]
Mechanism of inhibition with respect to L-KYN ([1]; PfKMO): competitive inhibitor
Mechanism of inhibition with respect to NADPH ([1]; PfKMO): mixed type inhibitors
H2O2 production [2]: not detected
Absolute amount of drug recovered in urine ([3]; 0 - 8 h): 8.67 µg
Amount of drug in urine recovered ([3]; 0 - 8 h): 30.3 % Dose
Absolute amount of drug recovered in urine ([3]; 8 - 24 h): 0.15 µg
Amount of drug in urine recovered ([3]; 8 - 24 h): 0.5 % Dose

CCOC(=O)CN1C(=O)COc2cc(C)c(Cl)c(C)c21 [1b]
Reduction in [3H]-3-HK ([4]; rat striatum, 5 mg/kg i.v., 1 h, vs vehicle): ~ 70%
Percentage of [5-3H]-KYN that is metabolized into [3H]-3-HK ([4]; striatum of awake rats, 1 h after 5 mg/kg i.v., single rats, listed as Prodrug 1b): 0.72% and 0.39% and 1.91% and 0.11% and 1.44% and 0.83% and 2.24% and 1.06% and 1.38% and 0.19%

Cc1cc2c(c(C)c1Cl)N(Cc1nn[nH]n1)C(=O)CO2 [1h, 6-chloro-5,7-dimethyl-4-(2H-tetrazol-5-ylmethyl)-1,4-benzoxazin-3-one]
Ki [1]: 1.06 ± 0.04 µM
